Reference: patent US8465808B2, “Process for depositing an organic acid on the surface of a metal composition” (Duquesne University of the Holy Spirit, priority 2005, dated 2013)

What was measured:
[1] = Static contact angle goniometry with water on modified SS316L; format: physicochemical; settings: SAM of the acid on SS316L; for Contact angle values: static, average of at least 3 samples, 6 readings each
Method: Static contact angles were measured using VCA Optima Goniometry to determine the wettability of the surface. Measurements were made using the procedure described by Bain et al. (J. Am. Chem. Soc. 1989; Vol. 111, pgs. 321-335), known by those skilled in the art. About 1 μl drop of deionized water (purified with a Millipore Milli Q plus system) was formed at the end of the micro-liter syringe and brought into contact with the surface. Average contact angle value±standard deviation of 6 readings each on at least 3 samples have been reported.

[2] = system: 3T3 Swiss Albino embryo fibroblast cells; test: Live/dead viability of cells on modified SS316L substrates; format: cell-based; settings: 3T3 fibroblasts, 10,000 cells/well, 24 hours on SAM-modified SS316L
Method: For cell experiments, 3T3 Swiss Albino embryo fibroblast cells of mouse were obtained from ATCC (CCL-92). The cells were grown in Dulbecco's modified Eagle medium (DMEM, Invitrogen Corp.) supplemented with 10% calf serum, 1% penicillin/[…] antibiotic. The cells were passaged every 3 days and were discarded after 15 passages. Cells were removed from the T 75 flasks by trypsinization, washed once with DMEM, suspended in culture medium. The modified SS316L substrates were placed in a 24 well plate and were sterilized with 70% ethanol for 10 mins and then rinsed with sterile distilled water 3 times. The sterilized substrates were left in the hood to dry. The suspended 3T3 Swiss Albino embryo fibroblast cells were then counted with a Haemocytometer after staining them with trypan blue and seeded at the density of 10,000 cells/well into each of the wells containing the substrates modified with respective acids After incubating the cells in humidified air with 5% CO2 for 24 hours at 37° C., the samples were rinsed with PBS three times and analyzed for live dead cells. […] This calcein is retained in the live cells and produces a green fluorescence. Ethidium homodimer is excluded by the intact plasma membrane of live cells but enters cells with damaged membranes (dead cells), binds to nucleic acid and produces a bright red fluorescence. […]

[3] = cited from earlier work
[4] = system: 3T3 Swiss Albino embryo fibroblast cells; test: Cell adhesion (number of cells attached) on modified SS316L substrates; format: cell-based, mouse; settings: 3T3 cells, 24 hours, fluorescence microscopy
Method: For cell experiments, 3T3 Swiss Albino embryo fibroblast cells of mouse were obtained from ATCC (CCL-92). The cells were grown in Dulbecco's modified Eagle medium (DMEM, Invitrogen Corp.) supplemented with 10% calf serum, 1% penicillin/[…] antibiotic. The cells were passaged every 3 days and were discarded after 15 passages. Cells were removed from the T 75 flasks by trypsinization, washed once with DMEM, suspended in culture medium. The modified SS316L substrates were placed in a 24 well plate and were sterilized with 70% ethanol for 10 mins and then rinsed with sterile distilled water 3 times. The sterilized substrates were left in the hood to dry. The suspended 3T3 Swiss Albino embryo fibroblast cells were then counted with a Haemocytometer after staining them with trypan blue and seeded at the density of 10,000 cells/well into each of the wells containing the substrates modified with respective acids After incubating the cells in humidified air with 5% CO2 for 24 hours at 37° C., the samples were rinsed with PBS three times and analyzed for live dead cells. Viability/cytotoxicity kit (L-3224) obtained from Molecular Probes was used to provide a simultaneous determination of live and dead cells. The assay contains Calcein AM and ethidium homodimer dyes. The live cells are identified by the enzymatic conversion of the non-fluorescent cell permeant calcein AM to intensely fluorescent calcein. This calcein is retained in the live cells and produces a green fluorescence. Ethidium homodimer is excluded by the intact plasma membrane of live cells but enters cells with damaged membranes (dead cells), binds to nucleic acid and produces a bright red fluorescence. Live cells are in green and dead cells in red when viewed under fluorescent microscope.
After washing with PBS, 0.5 ml of the live/dead stain was added to each well and the well plate was covered with aluminum foil and placed in the incubator for about 30 minutes. Three samples of each type of modification were used for every set and four such sets were performed. Each sample was mounted on the microscope slide and viewed under fluorescence Nikon Eclipse microscope at 10× magnification. Five different spots were observed and counted for cells on each sample and average value used for calculation of significance. Viability calculations were performed on each sample by counting the number of live cells in the total number of cells.
ANOVA was used to determine the statistical difference between the means of data sets for cell experiments with the modified substrates and multiple comparisons of the sample means was performed using Bonferroni post test using confidence level of 0.05.
In order to determine the stability of the interfacial systems developed in this work under physiological conditions and their viability for use in biomedical devices (and more specifically medically implantable devices), cell adhesion studies using fibroblasts were conducted on four sets of independent experiments with three samples each of all functionalized SAM with carboxylate and phosphonate head groups. The substrates were modified with —CH3, —COOH, —OH terminated phosphonic acids and —CH3, —OH, —COOH and —NH2 terminated carboxylic acids by the solution deposition process of the present invention as set forth herein. […] The samples were then rinsed with PBS three times and analyzed for live dead cells using the Viability/cytotoxicity kit. […]

Contact angle values [1] | Compound | Contact angle compared with control SS316L substrate [1] | pKa [3] | further results
52.3° | O=C(O)CCCCCCCCCCCCP(=O)(O)O [C12COOH—P, 12-carboxydodecanephosphonic acid] |  |  | 
 | CCCCCCCCCCCCCCCCCCS(=O)(=O)O [Octadecyl sulfonic acid] |  | pKa = 2 | 
 | 12-aminododecanecarboxylic acid [C12NH2—C] | lower contact angle values than the control |  | 
 | CCCCCCCCCCCCCCCCCC(=O)O [Heptadecyl Carboxylic acid] |  | pKa = 10 | 
104.1° | CCCCCCCCCCCCCCCCCCC(=O)O [ODCA, octadecylcarboxylic acid] |  | pKa = 10 | Shape of the cells on the surface [4]: rounded and small; Contact angle values ([1]; listed as Octadecylcarboxylic acid): 104 °
38.4° | NCCCCCCCCCCCCC(=O)O [C12NH2—C, 12-aminododecanecarboxylic acid] |  |  | Number of cells attached to the modified SS316L (in words) [4]: close to that in the control
42° | O=C(O)CCCCCCCCCCCCC(=O)O [C14COOH—C, 1,12-dodecanedicarboxylic acid] | lower contact angle values than the control |  | 

Compound | Contact angle values [1] | Contact angle compared with control SS316L substrate [1] | pKa [3] | further results
O=C(O)CCCCCCCCCCCCCCCO [C16OH—C, 16-hydroxyhexadecanoic acid] | 48.6° | lower contact angle values than the control |  | 
CCCCCCCCCCCCCCCCCCP(=O)(O)O [ODPA, octadecylphosphonic acid] | 108° |  | pka = 4 | Viability (live cells / total number of cells) [2]: about 92%; Number of cells attached to the modified SS316L (in words) [4]: fewer cell attachments than ODCA; Shape of the cells on the surface [4]: rounded and small; Number of cells attached to the modified SS316L (in words) ([4]; listed as methyl terminated phosphonic acid): the least in number
O=P(O)(O)CCCCCCCCCCCO [C11OH—P, 11-hydroxyundecanephosphonic acid] | 59.8° |  |  | Viability (live cells / total number of cells) [2]: about 92%
